Laboratory results from PubChem BioAssay (NCI).
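Each compound was tested at five concentrations against cells in 96-well plates for 48 hours. GI50: concentration for 50% inhibition of growth. Definition used: TGI = concentration required for complete inhibition of growth.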

Legend:
Experiment in all cases: NCI tumour cell line growth inhibition, 48 h
MDA-N = tested on: MDA-N
DU-145 prostate = tested on: DU-145 prostate
P388 leukemia = tested on: P388 leukemia
P388/ADR leukemia = tested on: P388/ADR leukemia
T-47D breast = tested on: T-47D breast
RXF-631 renal = tested on: RXF-631 renal

Compound | TGI (MDA-N) [µM] | TGI (DU-145 prostate) [µM] | TGI (P388 leukemia) [µM] | TGI (P388/ADR leukemia) [µM] | TGI (T-47D breast) [µM] | TGI (RXF-631 renal) [µM] | further results
CN(CCNC(=O)c1cn(C)c2c1ccc1cc(Cl)ccc12)CCNC(=O)c1cn(C)c2c1ccc1cc(Cl)ccc12 | 3.41 | 3.25 | – | – | – | – | –
O=NN(CCCl)C(=O)Nc1ccc(Cl)c(Cl)c1 | – | – | > 100 | > 100 | – | – | –
OCCSCc1cc(Cl)cc(Cl)c1O | > 100 | > 100 | – | – | > 100 | – | –
Nc1nccc2c1ncn2C1C=C(CO)C(O)C1O (stereo not drawn) | – | – | > 76.4 | 40.8 | – | > 1000 | GI50 (RXF-631 renal): 902 µM
O=C1CSc2sc(=S)sc2S1 | – | – | > 100 | 97.8 | – | – | –
CCOC(=O)c1c(SC)nc(-c2ccc(Cl)cc2)sc1=N | – | > 100 | – | – | > 100 | – | –
Cc1ccc(NC(=O)CC(=O)n2nc(-c3ccccc3)c(N=Nc3ccccc3C(=O)O)c2-c2ccccc2)cc1 | – | – | – | – | – | > 100 | –
O=C1NC2(NC(=O)C1=O)Nc1ccccc1S2 | – | – | – | – | – | 47.9 | –
COc1cccc2c1C(=O)c1c(O)c3c(c(O)c1C2=O)C[C@@](O)(C(C)=O)C[C@@H]3OC1CC(N(C)C)C(O)C(C)O1 (stereo partly drawn) | 0.00154 | 0.00739 | 0.0139 | 0.135 | 0.00329 | – | –
CC1C(O)[C@@]2(OC[C@@]34C(=O)CC5(O)[C@H](CCC6Cc7nc8c(nc7C[C@]65C)CC5CC[C@@H]6C7=C[C@H]9O[C@@]%10(O[C@@](C)(CO)C[C@@H]%10O)C(C)[C@@]9(O)[C@]7(C)[C@@H](O)CC6[C@]5(C)C8)C3=CC[C@H]4C2C)OC1(C)C (stereo partly drawn) | – | – | > 3.55 | 0.0266 | – | – | –
COC[C@@H]1Cc2cc(OC)c3c(c2[C@H](c2ccc(OC)c(OC)c2)[C@H]1COC)OCO3 | – | – | – | – | – | > 100 | –
Cc1cc(O)c2cc3c(O)c(O)ccc3cc2c1 | 8.86 | > 50.8 | – | – | 6.28 | – | –
